Assay results from patent publication US20110313021A1, “Method to rapidly identify critical p53 target genes that can be utilized for therapeutic intervention” (priority 2010, published 2011).

Target: T1, GST-tagged recombinant MCAK protein (amino acids 182 to 646 of the human MCAK protein) (Homo sapiens, UniProt Q99661)
T1 construct: corresponding to amino acids 182 to 646 of the human MCAK protein; GST; purchased Cytoskeleton, Denver Colo
Assay: MCAK ATPase assay
Format: biochemical
Settings: dose-response, read-out: 50% inhibitory concentration (IC50) for MCAK activity
From the text: Based on the instant data supporting a role for MCAK in p53 mediated cell death, it can be reasoned that MCAK will also fill a therapeutic niche for rational drug design targeting the mitotic checkpoint. Importantly, cancer cells with abrogated p53 contain high levels of MCAK, thereby providing a genetic determinant for therapeutic use of MCAK inhibitors. Accordingly, the inventor sought to identify and characterize inhibitors of MCAK function. MCAK utilizes the energy of Adenosine triphosphate (ATP) hydrolysis to carry out its MT depolymerization function. The inventor exploited this characteristic to utilize and optimize a commercially available in vitro assay that measures MCAK ATPase activity (Cytoskeleton, Denver Colo.). The components of the assay are: recombinant MCAK protein, ATP, pre-formed MTs, detection reagent for inorganic phosphate (Pi), and the appropriate buffers for the reaction. We utilized a glutathione S-transferase (GST)-tagged recombinant MCAK protein corresponding to amino acids 182 to 646 of the human MCAK protein, a region of the protein that contains the kinesin motor domain of MCAK. The ATPase activity of MCAK directly correlates to the presence of Pi in the reaction mixture.
The inventor used the MCAK ATPase to carry out a high-throughput screen (HTS) of a library of synthetic small molecules and various natural products. […]

T1 sequence (Q99661 182-646): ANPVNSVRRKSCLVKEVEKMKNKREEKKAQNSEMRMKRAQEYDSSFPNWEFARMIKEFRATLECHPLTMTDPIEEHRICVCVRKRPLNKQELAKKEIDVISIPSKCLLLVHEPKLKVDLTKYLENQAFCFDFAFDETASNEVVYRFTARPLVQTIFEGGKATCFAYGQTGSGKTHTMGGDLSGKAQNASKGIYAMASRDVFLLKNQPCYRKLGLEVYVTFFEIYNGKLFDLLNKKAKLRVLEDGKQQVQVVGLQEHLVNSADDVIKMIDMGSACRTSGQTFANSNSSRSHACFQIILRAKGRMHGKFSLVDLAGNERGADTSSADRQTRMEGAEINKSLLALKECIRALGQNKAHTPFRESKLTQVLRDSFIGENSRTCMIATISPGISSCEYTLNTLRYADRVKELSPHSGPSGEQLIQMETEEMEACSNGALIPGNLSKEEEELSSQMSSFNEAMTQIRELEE

Cc1cc2c(C(C)C)c(O)c(O)c(C=O)c2c(O)c1-c1c(C)cc2c(C(C)C)c(O)c(O)c(C=O)c2c1O [gossypol]
IC50: ~11 µM
